The results in this text go back to patent publication US12528826B2, “[1,4]oxazepino[2,3-c]quinolinone derivatives as BCL6 inhibitors” (Cancer Research Technology Limited, priority 2019, dated 2026).

The target in this test is T1, Trx-6×His-BCL6 (human BCL6 BTB domain covering amino-acid sequence 5-129) (Homo sapiens, UniProt P41182).
T1 construct: made in house
As to the kind of experiment: HTRF assay (BCL6 / BCOR peptide). The format is binding. Conditions: 1 nM Trx-6×His-BCL6, 300 nM BCOR-AF633 peptide, 2 hours incubation at room temperature; read-out: HTRF avg pIC50 (converted). As for the experimental part:
After 2 hours incubation at room temperature the plate was read on a Pherastar FSX (BMG Labtech) plate reader equipped with 337 nm laser excitation filter, a first emission filter at 620 nm and a second emission filter at 665 nm. The % inhibition at each concentration was calculated by normalising FRET ratio to the appropriate high (DMSO with all reagents) and low (DMSO without BCL6) controls.
Background: TR-FRET usually uses a lanthanide donor and a delayed reading to cut background.

In the case of `CC1CCN(c2ncc(Cl)c(Nc3ccc4c(c3)c3c(c(=O)n4C)OCC(F)(F)[C@H](C4CC4)N3)n2)CC1C` (mixture of isomers) [Example 12x07, (2S)-10-((5-chloro-2-(3,4-dimethylpiperidin-1-yl)pyrimidin-4-yl)amino)-2-cyclopropyl-3,3-difluoro-7-methyl-1,2,3,4-tetrahydro-[1,4]oxazepino[2,3-c]quinolin-6(7H)-one], the IC50 is 46.8 nM.
To `Cn1c(=O)c2c(c3cc(Nc4nc(N5CCC(F)(F)C(C(=O)N6CCC6)C5)ncc4Cl)ccc31)N[C@@H](C1CC1)C(F)(F)CO2` (mixture of isomers) [Example 12x18, (2S)-10-((2-(3-(azetidine-1-carbonyl)-4,4-difluoropiperidin-1-yl)-5-chloropyrimidin-4-yl)amino)-2-cyclopropyl-3,3-difluoro-7-methyl-1,2,3,4-tetrahydro-[1,4]oxazepino[2,3-c]quinolin-6(7H)-one] belongs 5.5 nM; to `Cn1c(=O)c2c(c3cc(Nc4nc(N5CCC(F)(F)C(C(=O)N6CC(F)(F)C6)C5)ncc4Cl)ccc31)N[C@@H](C1CC1)C(F)(F)CO2` (mixture of isomers) [Example 12x19, (2S)-10-((5-chloro-2-(3-(3,3-difluoroazetidine-1-carbonyl)-4,4-difluoropiperidin-1-yl)pyrimidin-4-yl)amino)-2-cyclopropyl-3,3-difluoro-7-methyl-1,2,3,4-tetrahydro-[1,4]oxazepino[2,3-c]quinolin-6(7H)-one], 5.89 nM; to `Cn1c(=O)c2c(c3cc(Nc4nc(N5CCC(F)(F)C(CC(=O)N6CC(F)(F)C6)C5)ncc4Cl)ccc31)N[C@@H](C1CC1)C(F)(F)CO2` (mixture of isomers) [Example 12x20, (2S)-10-((5-chloro-2-(3-(2-(3,3-difluoroazetidin-1-yl)-2-oxoethyl)-4,4-difluoropiperidin-1-yl)pyrimidin-4-yl)amino)-2-cyclopropyl-3,3-difluoro-7-methyl-1,2,3,4-tetrahydro-[1,4]oxazepino[2,3-c]quinolin-6(7H)-one], 3.72 nM.
To `Cn1c(=O)c2c(c3cc(Nc4nc(N5CCC(F)(F)C(CC(=O)N6CCC6)C5)ncc4Cl)ccc31)N[C@@H](C1CC1)C(F)(F)CO2` (mixture of isomers) [Example 12x21, (2S)-10-((2-(3-(2-(azetidin-1-yl)-2-oxoethyl)-4,4-difluoropiperidin-1-yl)-5-chloropyrimidin-4-yl)amino)-2-cyclopropyl-3,3-difluoro-7-methyl-1,2,3,4-tetrahydro-[1,4]oxazepino[2,3-c]quinolin-6(7H)-one] belongs 3.55 nM.
Then `CC1CCN1c1ncc(Cl)c(Nc2ccc3c(c2)c2c(c(=O)n3C)OCC(F)(F)[C@H](C3CC3)N2)n1` (mixture of isomers) [Example 12x36, (2S)-10-((5-chloro-2-(2-methylazetidin-1-yl)pyrimidin-4-yl)amino)-2-cyclopropyl-3,3-difluoro-7-methyl-1,2,3,4-tetrahydro-[1,4]oxazepino[2,3-c]quinolin-6(7H)-one], with 7.76 nM; and `CC1CCCN(c2ncc(Cl)c(Nc3ccc4c(c3)c3c(c(=O)n4C)OCC(F)(F)[C@H](C4CC4)N3)n2)C1CO` (mixture of isomers) [Example 12x46, (2S)-10-((5-chloro-2-(2-(hydroxymethyl)-3-methylpiperidin-1-yl)pyrimidin-4-yl)amino)-2-cyclopropyl-3,3-difluoro-7-methyl-1,2,3,4-tetrahydro-[1,4]oxazepino[2,3-c]quinolin-6(7H)-one], with 11.2 nM; and `Cn1c(=O)c2c(c3cc(Nc4nc(N5CCC(F)(F)CC5CO)ncc4Cl)ccc31)N[C@@H](C1CC1)C(F)(F)CO2` (mixture of isomers) [Example 12x50, (2S)-10-((5-chloro-2-(4,4-difluoro-2-(hydroxymethyl)piperidin-1-yl)pyrimidin-4-yl)amino)-2-cyclopropyl-3,3-difluoro-7-methyl-1,2,3,4-tetrahydro-[1,4]oxazepino[2,3-c]quinolin-6(7H)-one], with 7.08 nM.
For the compound `CCNC(=O)[C@@H]1C[C@H](C)CN(c2ncc(Cl)c(Nc3ccc4c(c3)c3c(c(=O)n4C)OCC(F)(F)[C@H](C4CC4)N3)n2)C1` (racemic) [Example 9c, (3R,5S)-1-(5-chloro-4-(((S)-2-cyclopropyl-3,3-difluoro-7-methyl-6-oxo-1,2,3,4,6,7-hexahydro-[1,4]oxazepino[2,3-c]quinolin-10-yl)amino)pyrimidin-2-yl)-N-ethyl-5-methylpiperidine-3-carboxamide; (3S,5R)-1-(5-chloro-4-(((S)-2-cyclopropyl-3,3-difluoro-7-methyl-6-oxo-1,2,3,4,6,7-hexahydro-[1,4]oxazepino[2,3-c]quinolin-10-yl)amino)pyrimidin-2-yl)-N-ethyl-5-methylpiperidine-3-carboxamide], the IC50 is 3.47 nM.
Then `C[C@H]1C[C@@H](CO)CN(c2ncc(Cl)c(Nc3ccc4c(c3)c3c(c(=O)n4C)OCC(F)(F)[C@H](C4CC4)N3)n2)C1` (racemic) [Example 9d, (S)-10-((5-chloro-2-((3R,5S)-3-(hydroxymethyl)-5-methylpiperidin-1-yl)pyrimidin-4-yl)amino)-2-cyclopropyl-3,3-difluoro-7-methyl-1,2,3,4-tetrahydro-[1,4]oxazepino[2,3-c]quinolin-6(7H)-one; (S)-10-((5-chloro-2-((3S,5R)-3-(hydroxymethyl)-5-methylpiperidin-1-yl)pyrimidin-4-yl)amino)-2-cyclopropyl-3,3-difluoro-7-methyl-1,2,3,4-tetrahydro-[1,4]oxazepino[2,3-c]quinolin-6(7H)-one], with 4.17 nM; and `Cn1c(=O)c2c(c3cc(Nc4nc(N5CCC(F)(F)C(O)C5)ncc4Cl)ccc31)N[C@@H](C1CC1)C(F)(F)CO2` (mixture of isomers) [Example 9e, (S)-10-((5-chloro-2-((R)-4,4-difluoro-3-hydroxypiperidin-1-yl)pyrimidin-4-yl)amino)-2-cyclopropyl-3,3-difluoro-7-methyl-1,2,3,4-tetrahydro-[1,4]oxazepino[2,3-c]quinolin-6(7H)-one; (S)-10-((5-chloro-2-((S)-4,4-difluoro-3-hydroxypiperidin-1-yl)pyrimidin-4-yl)amino)-2-cyclopropyl-3,3-difluoro-7-methyl-1,2,3,4-tetrahydro-[1,4]oxazepino[2,3-c]quinolin-6(7H)-one], with 3.72 nM; and `Cn1c(=O)c2c(c3cc(Nc4nc(N5CCCC(CF)C5)ncc4Cl)ccc31)N[C@@H](C1CC1)C(F)(F)CO2` (mixture of isomers) [Example 9f, (S)-10-((5-chloro-2-((R)-3-(fluoromethyl)piperidin-1-yl)pyrimidin-4-yl)amino)-2-cyclopropyl-3,3-difluoro-7-methyl-1,2,3,4-tetrahydro-[1,4]oxazepino[2,3-c]quinolin-6(7H)-one; (S)-10-((5-chloro-2-((S)-3-(fluoromethyl)piperidin-1-yl)pyrimidin-4-yl)amino)-2-cyclopropyl-3,3-difluoro-7-methyl-1,2,3,4-tetrahydro-[1,4]oxazepino[2,3-c]quinolin-6(7H)-one], with 10.2 nM.
To `Cn1c(=O)c2c(c3cc(Nc4nc(N5CCC(F)(F)C(CC(N)=O)C5)ncc4Cl)ccc31)N[C@@H](C1CC1)C(F)(F)CO2` (mixture of isomers) [Example 9g] belongs 2.29 nM.
Then `CCNC(=O)C1CN(c2ncc(Cl)c(Nc3ccc4c(c3)c3c(c(=O)n4C)OCC(F)(F)[C@H](C4CC4)N3)n2)CCC1(F)F` (mixture of isomers) [Example 9j, (R)-1-(5-chloro-4-(((S)-2-cyclopropyl-3,3-difluoro-7-methyl-6-oxo-1,2,3,4,6,7-hexahydro-[1,4]oxazepino[2,3-c]quinolin-10-yl)amino)pyrimidin-2-yl)-N-ethyl-4,4-difluoropiperidine-3-carboxamide; (S)-1-(5-chloro-4-(((S)-2-cyclopropyl-3,3-difluoro-7-methyl-6-oxo-1,2,3,4,6,7-hexahydro-[1,4]oxazepino[2,3-c]quinolin-10-yl)amino)pyrimidin-2-yl)-N-ethyl-4,4-difluoropiperidine-3-carboxamide], with 4.17 nM; and `CCN(CC1CN(c2ncc(Cl)c(Nc3ccc4c(c3)c3c(c(=O)n4C)OCC(F)(F)[C@H](C4CC4)N3)n2)CCC1(F)F)C(C)=O` (mixture of isomers) [Example 9k], with 4.27 nM.
For the compound `Cn1c(=O)c2c(c3cc(Nc4nc(N5CC6CC5CC6(F)F)ncc4Cl)ccc31)N[C@@H](C1CC1)C(F)(F)CO2` (mixture of isomers) [Example 9l, (S)-10-((5-chloro-2-((1R,4R)-5,5-difluoro-2-azabicyclo[2.2.1]heptan-2-yl)pyrimidin-4-yl)amino)-2-cyclopropyl-3,3-difluoro-7-methyl-1,2,3,4-tetrahydro-[1,4]oxazepino[2,3-c]quinolin-6(7H)-one; (S)-10-((5-chloro-2-((1S,4S)-5,5-difluoro-2-azabicyclo[2.2.1]heptan-2-yl)pyrimidin-4-yl)amino)-2-cyclopropyl-3,3-difluoro-7-methyl-1,2,3,4-tetrahydro-[1,4]oxazepino[2,3-c]quinolin-6(7H)-one], the IC50 was 11.7 nM.
Regarding `CCN1CC2CCC(C1=O)N2c1ncc(Cl)c(Nc2ccc3c(c2)c2c(c(=O)n3C)OCC(F)(F)[C@H](C3CC3)N2)n1` (mixture of isomers) [Example 9r, (S)-10-((5-chloro-2-((1S,5R)-3-ethyl-2-oxo-3,8-diazabicyclo[3.2.1]octan-8-yl)pyrimidin-4-yl)amino)-2-cyclopropyl-3,3-difluoro-7-methyl-1,2,3,4-tetrahydro-[1,4]oxazepino[2,3-c]quinolin-6(7H)-one; (S)-10-((5-chloro-2-((1R,5S)-3-ethyl-2-oxo-3,8-diazabicyclo[3.2.1]octan-8-yl)pyrimidin-4-yl)amino)-2-cyclopropyl-3,3-difluoro-7-methyl-1,2,3,4-tetrahydro-[1,4]oxazepino[2,3-c]quinolin-6(7H)-one], the IC50 is 3.63 nM.
